In brackets after ≈: the same amount, converted by molar mass. Where two headings read alike, the source gives them in different places.
What was measured:
Assay in all cases: in vitro antibacterial MIC, agar plate dilution
Type in all cases: cell-based
[1] = test system: Escherichia coli CMC 84-11; conditions: Escherichia coli, CMC8411, 18 h, 35° C., read-out: MIC
Method in brief: (§1)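 Agar plate dilution on Mueller-Hinton agar, inoculum approximately 10^4 CFU per organism applied with a Steers replicator. MIC (mcg/ml) is the lowest compound concentration inhibiting visible growth after 18 hours at 35° C.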

[2] = test system: Escherichia coli ATCC 25922; conditions: 35° C.
Method in brief: as §1

[3] = test system: Morganella morganii CMC 84-37; conditions: Morganella morganii, CMC8437, 18 h, 35° C., read-out: MIC
Method in brief: as §1

[4] = test system: Staphylococcus aureus ATTC 29213; conditions: 35° C.
Method in brief: as §1

[5] = test system: Serratia marcescens K 84-18; conditions: Serratia marcescens, K8418, 18 h, 35° C., read-out: MIC
Method in brief: as §1

[6] = test system: Streptococcus faecalis VGH 84-65; conditions: Enterococcus faecalis, VGH8465, 18 h, 35° C., read-out: MIC
Method in brief: as §1

[7] = test system: Providencia stuarti CMC 83-3; conditions: Providencia, CMC833, 18 h, 35° C., read-out: MIC
Method in brief: as §1

[8] = test system: Streptococcus faecalis UCI 85-30; conditions: Enterococcus faecalis, UCI8530, 18 h, 35° C., read-out: MIC
Method in brief: as §1

[9] = test system: Staphylococcus aureus Smith; conditions: Staphylococcus aureus, 18 h, 35° C., read-out: MIC
Method in brief: as §1

[10] = test system: Escherichia coli VGH 84-19; conditions: Escherichia coli, VGH8419, 18 h, 35° C., read-out: MIC
Method in brief: as §1

[11] = test system: Klebsiella pneumoniae CMC 84-31; conditions: Klebsiella pneumoniae, CMC8431, 18 h, 35° C., read-out: MIC
Method in brief: as §1

[12] = test system: Escherichia coli MOR 84-20; conditions: Escherichia coli, MOR8420, 18 h, 35° C., read-out: MIC
Method in brief: as §1

[13] = test system: Staphylococcus aureus K 82-26; conditions: Staphylococcus aureus, K8226, 18 h, 35° C., read-out: MIC
Method in brief: as §1

[14] = test system: Proteus rettgeri IO 83-21; conditions: Providencia rettgeri, IO8321, 18 h, 35° C., read-out: MIC
Method in brief: as §1

[15] = test system: Staphylococcus aureus VGH 84-47; conditions: Staphylococcus aureus, VGH8447, 18 h, 35° C., read-out: MIC
Method in brief: as §1

[16] = test system: Pseudomonas aeruginosa VGH 84-3; conditions: Pseudomonas aeruginosa, VGH843, 18 h, 35° C., read-out: MIC
Method in brief: as §1

[17] = test system: Pseudomonas aeruginosa VGH 84-4; conditions: Pseudomonas aeruginosa, VGH844, 18 h, 35° C., read-out: MIC
Method in brief: as §1

[18] = test system: Pseudomonas aeruginosa K 84-16; conditions: Pseudomonas aeruginosa, K8416, 18 h, 35° C., read-out: MIC
Method in brief: as §1

[19] = test system: Enterobacter cloacae K 84-10; conditions: Enterobacter cloacae, K8410, 18 h, 35° C., read-out: MIC
Method in brief: as §1

[20] = test system: Pseudomonas aeruginosa CMC 83-20; conditions: Pseudomonas aeruginosa, CMC8320, 18 h, 35° C., read-out: MIC
Method in brief: as §1

[21] = test system: Citrobacter div. K 82-24; conditions: Citrobacter, DIV.K8224, 18 h, 35° C., read-out: MIC
Method in brief: as §1

[22] = test system: Serratia marcescens VGH 84-30; conditions: Serratia marcescens, VGH8430, 18 h, 35° C., read-out: MIC
Method in brief: as §1

[23] = test system: Morganella morganii CMC 84-38; conditions: Morganella morganii, CMC8438, 18 h, 35° C., read-out: MIC
Method in brief: as §1

[24] = test system: Pseudomonas aeruginosa LL-1244; conditions: Pseudomonas aeruginosa, LL1244, 18 h, 35° C., read-out: MIC
Method in brief: as §1

[25] = test system: Klebsiella pneumoniae MOR 84-24; conditions: Klebsiella pneumoniae, MOR8424, 18 h, 35° C., read-out: MIC
Method in brief: as §1

[26] = test system: Enterobacter cloacae MOR 84-30; conditions: Enterobacter cloacae, MOR8430, 18 h, 35° C., read-out: MIC
Method in brief: as §1

[27] = test system: Klebsiella pneumoniae IO 83-5; conditions: Klebsiella pneumoniae, IO835, 18 h, 35° C., read-out: MIC
Method in brief: as §1

[28] = test system: Staphylococcus aureus VGH 84-45; conditions: Staphylococcus aureus, VGH8445, 18 h, 35° C., read-out: MIC
Method in brief: as §1

[29] = test system: Streptococcus faecalis UCI 85-19; conditions: Enterococcus faecalis, UCI8519, 18 h, 35° C., read-out: MIC
Method in brief: as §1

[30] = test system: Staphylococcus aureus CMC 83-131; conditions: Staphylococcus aureus, CMC83131, 18 h, 35° C., read-out: MIC
Method in brief: as §1

[31] = test system: Serratia marcescens CMC 83-74; conditions: Serratia marcescens, CMC8374, 18 h, 35° C., read-out: MIC
Method in brief: as §1

[32] = test system: Escherichia coli CMC 84-50; conditions: Escherichia coli, CMC8450, 18 h, 35° C., read-out: MIC
Method in brief: as §1

[33] = test system: Streptococcus faecalis CMC 83-120; conditions: Enterococcus faecalis, CMC83120, 18 h, 35° C., read-out: MIC
Method in brief: as §1

CN1CCN(c2cc3c(cc2F)c(=O)c(C(=O)O)cn3C2CC2)CC1C1CC1 (centres unmarked) [Example 125, 1-Cyclopropyl-7-(3-cyclopropyl-4-methyl-1-piperazinyl) -6-fluoro-1,4-dihydro-4-oxo-3-quinolinecarboxylic acid]
MIC [1]: 0.06 µg/mL (≈ 0.156 µM)
MIC ([2]; 18 hours): 0.06 µg/mL (≈ 0.156 µM)
MIC ([2]; Escherichia coli, ATCC25922, 18 h, read-out: MIC): 0.03 µg/mL (≈ 0.0778 µM)
MIC [3]: 0.25 µg/mL (≈ 0.649 µM)
MIC ([4]; 18 hours): 0.5 µg/mL (≈ 1.3 µM)
MIC ([4]; Staphylococcus aureus, ATTC29213, 18 h, read-out: MIC): 0.25 µg/mL (≈ 0.649 µM)
MIC [5]: 0.5 µg/mL (≈ 1.3 µM)
MIC [6]: 4 µg/mL (≈ 10.4 µM)
MIC [7]: > 16 µg/mL
MIC [8]: 8 µg/mL (≈ 20.8 µM)
MIC [9]: 0.12 µg/mL (≈ 0.311 µM)
MIC [10]: 0.25 µg/mL (≈ 0.649 µM)
MIC [11]: 0.25 µg/mL (≈ 0.649 µM)
MIC [12]: 0.25 µg/mL (≈ 0.649 µM)
MIC [13]: 4 µg/mL (≈ 10.4 µM)
MIC [14]: 1 µg/mL (≈ 2.59 µM)
MIC [15]: 0.5 µg/mL (≈ 1.3 µM)
MIC [16]: > 16 µg/mL
MIC [17]: 8 µg/mL (≈ 20.8 µM)
MIC [18]: 16 µg/mL (≈ 41.5 µM)
MIC [19]: 0.06 µg/mL (≈ 0.156 µM)
MIC [20]: 16 µg/mL (≈ 41.5 µM)
MIC [21]: 0.25 µg/mL (≈ 0.649 µM)
MIC [22]: 8 µg/mL (≈ 20.8 µM)
MIC [23]: 0.5 µg/mL (≈ 1.3 µM)
MIC [24]: 16 µg/mL (≈ 41.5 µM)
MIC [25]: 0.5 µg/mL (≈ 1.3 µM)
MIC [26]: 2 µg/mL (≈ 5.19 µM)
MIC [27]: 0.5 µg/mL (≈ 1.3 µM)
MIC [28]: 0.12 µg/mL (≈ 0.311 µM)
MIC [29]: 4 µg/mL (≈ 10.4 µM)
MIC [30]: 1 µg/mL (≈ 2.59 µM)
MIC [31]: > 16 µg/mL
MIC [32]: 0.25 µg/mL (≈ 0.649 µM)
MIC [33]: 4 µg/mL (≈ 10.4 µM)
